Test results reported in patent US9417239B2, “Assay to determine LRRK2 activity in parkinson's disease” (PARKINSON'S INSTITUTE, priority 2011, dated 2016).

Assays:
LRRK2 [1] = target: T1, LRRK2 (Homo sapiens, UniProt Q5S007, D2017A); conditions: cited from earlier work
T1 construct: expressed in transfected cells; host or cells: HEK293 Flp-in T-REx, doxycycline-induced

LRRK2 [2] = target: T2, LRRK2 (Homo sapiens, UniProt Q5S007); assay: Immunoblot of LRRK2 phosphosites after GFP immunoprecipitation from HEK293 T-REx cells expressing GFP-LRRK2 variants; format: cell-based; conditions: T-REx cells expressing active LRRK2; 1 μM LRRK2-IN1 for 90 minutes
T2 sequence (Q5S007 whole entry): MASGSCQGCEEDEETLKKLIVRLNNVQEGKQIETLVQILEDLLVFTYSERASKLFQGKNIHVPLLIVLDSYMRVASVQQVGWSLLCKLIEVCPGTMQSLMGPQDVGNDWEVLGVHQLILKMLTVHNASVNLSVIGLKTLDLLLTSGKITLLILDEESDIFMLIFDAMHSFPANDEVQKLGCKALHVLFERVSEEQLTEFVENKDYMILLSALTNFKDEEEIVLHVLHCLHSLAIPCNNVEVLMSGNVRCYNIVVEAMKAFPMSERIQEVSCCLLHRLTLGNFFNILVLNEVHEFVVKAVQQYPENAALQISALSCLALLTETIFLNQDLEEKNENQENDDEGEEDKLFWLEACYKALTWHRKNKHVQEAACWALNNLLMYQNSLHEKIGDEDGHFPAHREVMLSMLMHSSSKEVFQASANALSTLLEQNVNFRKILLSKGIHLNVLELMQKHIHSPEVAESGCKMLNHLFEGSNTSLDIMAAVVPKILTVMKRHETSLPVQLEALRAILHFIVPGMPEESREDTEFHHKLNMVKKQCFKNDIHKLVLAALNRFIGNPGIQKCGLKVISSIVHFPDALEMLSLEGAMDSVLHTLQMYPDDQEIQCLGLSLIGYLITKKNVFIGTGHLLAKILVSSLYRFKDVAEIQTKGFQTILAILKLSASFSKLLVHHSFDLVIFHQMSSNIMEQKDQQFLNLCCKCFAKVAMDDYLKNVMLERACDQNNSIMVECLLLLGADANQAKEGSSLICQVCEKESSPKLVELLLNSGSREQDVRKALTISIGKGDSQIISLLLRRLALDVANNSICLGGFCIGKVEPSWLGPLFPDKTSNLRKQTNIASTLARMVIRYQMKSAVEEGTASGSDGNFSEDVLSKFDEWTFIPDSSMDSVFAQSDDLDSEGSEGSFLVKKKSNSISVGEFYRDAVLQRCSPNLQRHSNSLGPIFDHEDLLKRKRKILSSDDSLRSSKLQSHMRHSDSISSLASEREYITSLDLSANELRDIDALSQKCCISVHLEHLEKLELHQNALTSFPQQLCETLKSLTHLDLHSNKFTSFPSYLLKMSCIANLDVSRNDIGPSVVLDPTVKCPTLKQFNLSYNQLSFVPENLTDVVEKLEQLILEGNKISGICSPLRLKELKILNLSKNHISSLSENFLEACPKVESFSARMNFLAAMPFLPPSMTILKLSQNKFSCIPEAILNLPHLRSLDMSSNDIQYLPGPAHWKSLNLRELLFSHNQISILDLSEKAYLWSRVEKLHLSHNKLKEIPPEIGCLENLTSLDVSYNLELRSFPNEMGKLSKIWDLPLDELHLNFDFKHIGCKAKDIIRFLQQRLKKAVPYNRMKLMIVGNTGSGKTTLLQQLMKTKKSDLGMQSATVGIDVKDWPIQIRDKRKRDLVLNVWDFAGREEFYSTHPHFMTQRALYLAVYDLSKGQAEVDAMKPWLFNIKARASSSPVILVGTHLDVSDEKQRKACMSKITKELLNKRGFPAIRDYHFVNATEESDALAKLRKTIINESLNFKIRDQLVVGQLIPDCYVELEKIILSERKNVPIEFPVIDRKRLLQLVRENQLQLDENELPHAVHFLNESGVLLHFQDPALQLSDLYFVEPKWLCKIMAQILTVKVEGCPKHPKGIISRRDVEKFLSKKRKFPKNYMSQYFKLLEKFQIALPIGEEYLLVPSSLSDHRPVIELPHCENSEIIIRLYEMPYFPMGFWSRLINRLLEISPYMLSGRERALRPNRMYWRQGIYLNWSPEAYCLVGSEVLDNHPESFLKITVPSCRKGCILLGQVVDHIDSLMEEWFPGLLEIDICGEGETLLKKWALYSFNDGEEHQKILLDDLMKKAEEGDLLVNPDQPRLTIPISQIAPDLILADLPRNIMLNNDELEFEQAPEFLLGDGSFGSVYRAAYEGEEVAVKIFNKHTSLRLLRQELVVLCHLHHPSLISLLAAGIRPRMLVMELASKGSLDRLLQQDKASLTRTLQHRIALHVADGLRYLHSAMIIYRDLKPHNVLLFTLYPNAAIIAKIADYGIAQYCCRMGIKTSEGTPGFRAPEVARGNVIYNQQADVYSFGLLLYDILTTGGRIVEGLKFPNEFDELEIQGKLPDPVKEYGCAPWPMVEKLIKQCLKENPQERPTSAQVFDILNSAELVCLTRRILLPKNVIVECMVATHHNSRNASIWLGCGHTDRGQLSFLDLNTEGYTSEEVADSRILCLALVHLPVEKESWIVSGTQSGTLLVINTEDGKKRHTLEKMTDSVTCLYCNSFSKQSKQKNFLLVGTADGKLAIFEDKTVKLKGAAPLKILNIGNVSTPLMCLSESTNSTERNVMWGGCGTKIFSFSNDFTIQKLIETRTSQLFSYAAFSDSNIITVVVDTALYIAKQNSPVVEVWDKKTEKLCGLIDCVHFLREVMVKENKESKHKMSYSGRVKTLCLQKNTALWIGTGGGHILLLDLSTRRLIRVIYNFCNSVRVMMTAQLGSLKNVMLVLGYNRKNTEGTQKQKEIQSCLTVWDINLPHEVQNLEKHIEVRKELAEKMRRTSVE
Procedure: (§1) Protein concentrations were determined using the Bradford method with BSA as the standard.

LRRK2 [3] = target: T1, LRRK2; assay: as above; format: cell-based; conditions: kinase inactive LRRK2 mutants; after LRRK2-IN1 treatment
Procedure: as §1

14-3-3 binding to LRRK2 = 14-3-3 binding to LRRK2 (Homo sapiens, UniProt Q5S007); assay: 14-3-3 overlay (far-western) assay of immunoprecipitated GFP-LRRK2; format: cell-based; conditions: 1 μM LRRK2-IN1 for 90 minutes
14-3-3 binding to LRRK2, sequence (Q5S007 whole entry): as above
Procedure: The indicated variants of full-length GFP-tagged LRRK2 were expressed from a stable and inducible locus in HEK293 T-REx cells and subjected to immunoprecipitation analysis. Immunoprecipitates were subjected to immunoblot analysis with anti-GFP, and anti-phospho-Ser910 (αpS910), anti-phospho-Ser935 (αpS935), anti-phospho-Ser955 (αpS955), and anti-phospho-Ser973 (αpS973) antibodies. 14-3-3 binding to the LRRK2 variants was assessed by 14-3-3 far-western blot analyses. All blots were co-probed with phospho antibody and GFP (total protein) monoclonal antibody and analyzed by Odyssey® LI-COR analysis; a representative total GFP blot is shown.
The Nanotrap GFP-Trap_A matrix was from ChromoTek (GTA-20). […] LiCOR Dyelight labelled 14-3-3 protein (recombinant, His tagged BMH1, a kind gift of Dr. Dario Alessi) was prepared as per the manufacturer's instructions and used to detect 14-3-3 binding. […] Fluorescent secondary antibodies were from Li-COR (Lincoln Nebr.) or Rockland immunochemicals (Rockland Ill.) LRRK2 Immunoprecipitation assays. Cell lysates were prepared in Lysis buffer (1.0 ml per 15 cm dish) and subjected to immunoprecipitation with GFP-trapA beads at 10 ul beads per 1.0 ml lysate for 1 hr. […]

GFP-LRRK2 = assay: Fluorescence microscopy of GFP-LRRK2 localization in HEK-293 Flp-in T-REx cells; format: cell-based, human; conditions: wild-type GFP-LRRK2; 1 μM LRRK2-IN1 for 90 minutes
Procedure: T-REx cells lines harboring the indicated LRRK2 variants were induced for 24 h with 1 μg/ml doxycycline to induce expression of GFP-LRRK2. After induction, cells were exposed to vehicle control (DMSO) or 1 μM LRRK2-IN1 for 90 minutes, then fixed with paraformaldehyde and GFP fluorescence was imaged. Representative fluorescent micrographs of cultures for the indicated phosphosite mutants in the presence and absence of inhibitor are shown, localization analysis was performed at least three times. White scale bar represents 10 microns.
HEK-293 Flp-in T-REx cells harbouring GFP tagged LRRK2 and PD associated mutations were plated in 4-well glass bottom, CC2 coated chamber slides (Nunc). One day after plating, cells were induced with 1 μg/ml doxycycline and 24 hr later, cells were fixed in 4% paraformaldehyde buffered in phosphate buffered saline (purchased from Electron Microscopy Sciences, #15710). Cells were imaged under on a Nikon TiE microscope with a 60× objective.

LRRK2 [4] = target: T2, LRRK2; assay: Immunoprecipitation of FLAG-tagged wild-type LRRK2 from treated HEK 293 cells, in vitro autophosphorylation kinase assay, phosphosite immunoblot; format: cell-based; conditions: transient expression, 1 μM LRRK2-IN1 for 90 minutes
Text: Immunoprecipitates were extensively washed then subjected to in vitro kinase assay in the presence or absence of ATP,in the presence or absence of LRRK2-1N1. Reaction products were immunoblotted with antiphospho-Ser1491 (αpThr1491), anti-phospho-Ser910 (αpS910), anti-phospho-Ser935 (αpS935), anti-phospho-Ser955 (αpS955), and anti-phospho-Ser973 (αpS973) antibodies.
Immunoprecipitation Kinase Assay conditions. Wild-type LRRK2 was transiently expressed in HEK293 cells using polyethylenimine for approximately 36 hours, then cells were treated with DMSO or 1 μM LRRK2-IN1 for 90 minutes. Lysates were then subjected to immunoprecipitation with anti-FLAG M2 agarose at a ratio of 1 μl beads per 100 μg of lysate for 2 hours.

LRRK2 [5] = assay: Western blot of LRRK2 phosphorylation sites, FLAG tagged LRRK2 in HEK293 T-Rex cells (FIG. 4); format: cell-based, human; conditions: kinase dead and inhibitor resistant mutant samples
Text: Full length, FLAG tagged, wild-type or mutant LRRK2 (as indicated in FIG. 4) was expressed from a stable/inducible locus of HEK293 T-Rex cells (Invitrogen).

T1 sequence (Q5S007 whole entry D2017A): as the sequence (Q5S007 whole entry) above, with D2017A counted along it

phosphorylation of Serines 910/935 (LRRK2 [2])	phosphorylation of Serines 955 and 973 (LRRK2 [2])	phosphorylation of Serines 910 and 935 or 955 and 973 in kinase inactive mutants (LRRK2 [3])	direct 14-3-3 association with LRRK2 (14-3-3 binding to LRRK2)	SMILES	basal level of LRRK2 phosphorylation at 910/935 in kinase inactive mutants (LRRK2 [1])	localization of GFP tagged LRRK2 (GFP-LRRK2)	phosphorylation of Ser910, Ser935, Ser955 and Ser973 of FLAG tagged wild-type LRRK2 (LRRK2 [4])	specificity of the inhibitor effects on phosphorylation of serines 955 and 973 (LRRK2 [5])
				Cc1cncc2cccc(S(=O)(=O)N3CCCNC[C@@H]3C)c12 [H-1152]	did not perturb			
complete dephosphorylation	dephosphorylation	no change was observed	reduced direct 14-3-3 association	COc1cc(C(=O)N2CCC(N3CCN(C)CC3)CC2)ccc1Nc1ncc2c(n1)N(C)c1ccccc1C(=O)N2C [LRRK2-IN1]		re-localization of the GFP tagged enzyme to intracellular puncta, large accumulations and microtubule like structures	dephosphorylated at the corresponding residues	specific to LRRK2
